# In patent publication US10611731B2, “5-methyl-6-phenyl-4,5-dihydro-2H-pyridazin-3-one derivative” (OTSUKA PHARMACEUTICAL CO., LTD., priority 2016, dated 2020):
# Test system: human childhood brain tumor cell lines (PFSK-1)
# Assay: Growth inhibitory activity against PFSK-1 cells (WST-8, Cell Counting Kit-8)
# Format: cell-based
# Details: Homo sapiens, 72 h, 3 days incubation with test compound, WST-8 OD 450/630 nm, read-out: IC50 (concentration inhibiting 50% of the cell growth)
# Description: The growth inhibitory activity against human childhood brain tumor cell lines (PFSK-1) was measured with WST-8 reagent [2-(2-methoxy-4-nitrophenyl)-3-(4-nitrophenyl)-5-(2,4-disulfophenyl)-2H-tetrazolium monosodium salt, Cell Counting Kit-8™], according to the method described in Tominaga, H. et al., Anal. Commun., 1999, 36, 47-50. Briefly, PFSK-1 was seeded in 96-well microplate at 100 μL/well with Roswell Park Memorial Institute (RPMI) 1640 medium containing 10% fetal bovine serum (FBS), and the cells were incubated in the presence of 5% carbon dioxide (CO2) at 37° C. for 24 hours. 50 μL of each test compound diluted with the medium was added to each well, and then the cells were incubated further for 3 days. After the incubation, 15 μL of Cell Counting Kit-8™ was added to each well, and the cells were incubated for one and half hours. Then, optical density (OD) values at measurement wavelength 450 nm and reference wavelength 630 nm were measured and the difference thereof was calculated. From the calculated difference, the OD value difference (at measurement wavelength 450 nm and reference wavelength 630 nm) of the control well which includes no cell was subtracted to afford cell-growth activity in each well.
# The cell growth inhibitory activity of each test compound was calculated by comparing the cell-growth activity with each test compound to the cell-growth activity without any test compound (control), and each IC50 (nM) which is the concentration inhibiting 50% of the cell growth was calculated.
row,SMILES,IC50 [nM]
1,"CCC(O)COc1c(Cl)cc(C2=NNC(=O)CC2C)cc1Br (stereo not drawn) [Example 66, 6-[3-Bromo-5-chloro-4-(2-hydroxybutoxy)phenyl]-5-methyl-4,5-dihydro-2H-pyridazin-3-one]",4.1
2,"Cc1cc(C2=NNC(=O)CC2C)cc(Cl)c1OCC1(CO)CC1 (stereo not drawn) [Example 144, 6-{3-Chloro-4-[1-(hydroxymethyl)cyclopropylmethoxy]-5-methylphenyl}-5-methyl-4,5-dihydro-2H-pyridazin-3-one]",4.2
3,"Cc1c(OCC(F)(F)CO)ccc(C2=NNC(=O)C[C@H]2C)c1F [Example 120, (5R)-(−)-6-[4-(2,2-difluoro-3-hydroxypropoxy)-2-fluoro-3-methylphenyl]-5-methyl-4,5-dihydro-2H-pyridazin-3-one]",2.4
4,"Cc1c(OCC2(O)CC2)ccc(C2=NNC(=O)CC2C)c1F (stereo not drawn) [Example 46, 6-{2-Fluoro-4-[(1-hydroxycyclopropyl)methoxy]-3-methylphenyl}-5-methyl-4,5-dihydro-2H-pyridazin-3-one]",3.9
5,"Cc1cc(C2=NNC(=O)CC2C)c(F)c(C)c1OCC(C)(C)CO (stereo not drawn) [Example 138, 6-[2-Fluoro-4-(3-hydroxy-2,2-dimethylpropoxy)-3,5-dimethylphenyl]-5-methyl-4,5-dihydro-2H-pyridazin-3-one]",3.9
6,"CC1CC(=O)NN=C1c1ccc(OC/C=C/CO)c(Cl)c1F (stereo not drawn) [Example 90, 6-[3-Chloro-2-fluoro-4-[(E)-4-hydroxy-2-butenyloxy]phenyl}-5-methyl-4,5-dihydro-2H-pyridazin-3-one]",3.9
7,"Cc1cc(C2=NNC(=O)CC2C)c(F)c(C)c1OC/C=C\CO (stereo not drawn) [Example 150, 6-{2-Fluoro-4-[(Z)-4-hydroxy-2-butenyloxy]-3,5-dimethylphenyl}-5-methyl-4,5-dihydro-2H-pyridazin-3-one]",3.7
8,"C[C@@H]1CC(=O)NN=C1c1cc(F)c(OCC2(O)CC2)c(Cl)c1 [Example 119, (5R)-(−)-6-{3-chloro-5-fluoro-4-[(1-hydroxycyclopropyl)methoxy]phenyl}-5-methyl-4,5-dihydro-2H-pyridazin-3-one]",2.9
9,"Cc1cc(C2=NNC(=O)CC2C)cc(C)c1OCC(C)(C)CO (stereo not drawn) [Example 71, 6-[4-(3-Hydroxy-2,2-dimethylpropoxy)-3,5-dimethylphenyl]-5-methyl-4,5-dihydro-2H-pyridazin-3-one]",3.9
10,"Cc1cc(C2=NNC(=O)CC2C)cc(C)c1OCC1(O)CC1 (stereo not drawn) [Example 43, 6-{4-[(1-Hydroxycyclopropyl)methoxy]-3,5-dimethylphenyl}-5-methyl-4,5-dihydro-2H-pyridazin-3-one]",4.3
11,"CC1CC(=O)NN=C1c1cc(F)c(OCCCO)c(Cl)c1 (stereo not drawn) [Example 15, 6-[3-Chloro-5-fluoro-4-(3-hydroxypropoxy)phenyl]-5-methyl-4,5-dihydro-2H-pyridazin-3-one]",4
12,"C=Cc1c(OCC(F)(F)CO)ccc(C2=NNC(=O)CC2C)c1F (stereo not drawn) [Example 114, 6-[4-(2,2-Difluoro-3-hydroxypropoxy)-2-fluoro-3-vinylphenyl]-5-methyl-4,5-dihydro-2H-pyridazin-3-one]",3.3
13,"CC1CC(=O)NN=C1c1cc(Cl)c(OCC(C)(C)CCO)c(Cl)c1 (stereo not drawn) [Example 100, 6-[3,5-dichloro-4-(4-hydroxy-2,2-dimethylbutoxy)phenyl]-5-methyl-4,5-dihydro-2H-pyridazin-3-one]",1.6
14,"Cc1cc(C2=NNC(=O)CC2C)cc(Cl)c1OCC(C)(C)O (stereo not drawn) [Example 31, 6-[3-chloro-4-(2-hydroxy-2-methylpropoxy)-5-methylphenyl]-5-methyl-4,5-dihydro-2H-pyridazin-3-one]",1.1
15,"Cc1cc(C2=NNC(=O)CC2C)c(F)c(Cl)c1OCC(C)(C)O (stereo not drawn) [Example 36, 6-[3-chloro-2-fluoro-4-(2-hydroxy-2-methylpropoxy)-5-methylphenyl]-5-methyl-4,5-dihydro-2H-pyridazin-3-one]",1
16,"CC1CC(=O)NN=C1c1ccc(OCCCCO)c(Cl)c1F (stereo not drawn) [Example 84, 6-[3-Chloro-2-fluoro-4-(4-hydroxybutoxy)phenyl]-5-methyl-4,5-dihydro-2H-pyridazin-3-one]",3.3
17,"CC1CC(=O)NN=C1c1cc(F)c(OCC2(O)CC2)c(Cl)c1F (stereo not drawn) [Example 172, 6-{3-Chloro-2,5-difluoro-4-[(1-hydroxycyclopropyl)methoxy]phenyl}-5-methyl-4,5-dihydro-2H-pyridazin-3-one]",5.2
18,"C=Cc1c(OCC(C)O)ccc(C2=NNC(=O)CC2C)c1F (stereo not drawn) [Example 59, 6-[2-fluoro-4-(2-hydroxypropoxy)-3-vinylphenyl]-5-methyl-4,5-dihydro-2H-pyridazin-3-one]",2.2

row,SMILES,IC50 [nM]
1,"CC1CC(=O)NN=C1c1ccc(OCCCO)c(Cl)c1F (stereo not drawn) [Example 19, 6-[3-chloro-2-fluoro-4-(3-hydroxypropoxy)phenyl]-5-methyl-4,5-dihydro-2H-pyridazin-3-one]",1.3
2,"CC1CC(=O)NN=C1c1ccc(OCC(C)(C)O)c(C(F)(F)F)c1F (stereo not drawn) [Example 184, 6-[2-fluoro-4-(2-hydroxy-2-methylpropoxy)-3-(trifluromethyl)phenyl]-5-methyl-4,5-dihydro-2H-pyridazin-3-one]",2.2
3,"Cc1cc(C2=NNC(=O)CC2C)c(F)c(Cl)c1OCC(F)(F)CO (stereo not drawn) [Example 159, 6-[3-Chloro-4-(2,2-difluoro-3-hydroxypropoxy)-2-fluoro-5-methylphenyl]-5-methyl-4,5-dihydro-2H-pyridazin-3-one]",< 1
4,"C[C@@H]1CC(=O)NN=C1c1ccc(OCC(C)(C)CO)c(Cl)c1F [Example 122, (5R)-(−)-6-[3-Chloro-2-fluoro-4-(3-hydroxy-2,2-dimethylpropoxy)phenyl]-5-methyl-4,5-dihydro-2H-pyridazin-3-one]",4.1
5,"Cc1cc(C2=NNC(=O)CC2C)cc(F)c1OCC1(O)CC1 (stereo not drawn) [Example 45, 6-{3-Fluoro-4-[(1-hydroxycyclopropyl)methoxy]-5-methylphenyl}-5-methyl-4,5-dihydro-2H-pyridazin-3-one]",7.2
6,"C[C@@H]1CC(=O)NN=C1c1ccc(OCC(C)(C)O)c(F)c1F [Example 124, (5R)-(−)-6-[2,3-difluoro-4-(2-hydroxy-2-methylpropoxy)phenyl]-5-methyl-4,5-dihydro-2H-pyridazin-3-one]",2.3
7,"CC1CC(=O)NN=C1c1ccc(OCC(C)(C)CCO)c(Cl)c1F (stereo not drawn) [Example 103, 6-[3-Chloro-2-fluoro-4-(4-hydroxy-2,2-dimethylbutoxy)phenyl]-5-methyl-4,5-dihydro-2H-pyridazin-3-one]",2.6
8,"Cc1c(OCCCO)ccc(C2=NNC(=O)C[C@H]2C)c1O [Example 178, (5R)-(−)-6-[2-hydroxy-4-(3-hydroxypropoxy)-3-methylphenyl]-5-methyl-4,5-dihydro-2H-pyridazin-3-one]",4.6
9,"Cc1c(F)c(C2=NNC(=O)CC2C)cc(Cl)c1OCC(C)O (stereo not drawn) [Example 147, 6-[5-Chloro-2-fluoro-4-(2-hydroxypropoxy)-3-methylphenyl]-5-methyl-4,5-dihydro-2H-pyridazin-3-one]",7.6
10,"Cc1c(OCC(C)(C)O)ccc(C2=NNC(=O)CC2C)c1O (stereo not drawn) [Example 28, 6-[2-Hydroxy-4-(2-hydroxy-2-methylpropoxy)-3-methylphenyl]-5-methyl-4,5-dihydro-2H-pyridazin-3-one]",6.3
11,"Cc1cc(C2=NNC(=O)C[C@H]2C)c(O)c(Cl)c1OCCCO [Example 181, (5R)-(−)-6-[3-chloro-2-hydroxy-4-(3-hydroxypropoxy)-5-methylphenyl]-5-methyl-4,5-dihydro-2H-pyridazin-3-one]",3.9
12,"Cc1cc(C2=NNC(=O)CC2C)cc(F)c1OCC(C)(C)O (stereo not drawn) [Example 33, 6-[3-Fluoro-4-(2-hydroxy-2-methylpropoxy)-5-methylphenyl]-5-methyl-4,5-dihydro-2H-pyridazin-3-one]",5.1
13,"CC1CC(=O)NN=C1c1ccc(OCC(C)(C)CCO)c(Cl)c1O (stereo not drawn) [Example 146, 6-[3-chloro-2-hydroxy-4-(4-hydroxy-2,2-dimethylbutoxy)phenyl]-5-methyl-4,5-dihydro-2H-pyridazin-3-one]",6.8
14,"CC1CC(=O)NN=C1c1ccc(OCCCO)c(C#N)c1F (stereo not drawn) [Example 106, 2-fluoro-6-(3-hydroxypropoxy)-3-(4-methyl-6-oxo-4,5-dihydro-1H-pyridazin-3-yl)benzonitrile]",6.4
15,"Cc1cc(C2=NNC(=O)CC2C)c(O)c(Cl)c1OCC1(O)CC1 (stereo not drawn) [Example 175, 6-{3-Chloro-2-hydroxy-4-[(1-hydroxycyclopropyl)methoxy]-5-methylphenyl}-5-methyl-4,5-dihydro-2H-pyridazin-3-one]",4.1
16,"Cc1cc(C2=NNC(=O)CC2C)c(F)c(Cl)c1OCCCO (stereo not drawn) [Example 22, 6-[3-chloro-2-fluoro-4-(3-hydroxypropoxy)-5-methylphenyl]-5-methyl-4,5-dihydro-2H-pyridazin-3-one]",1.9
17,"C=Cc1c(OCCO)ccc(C2=NNC(=O)CC2C)c1F (stereo not drawn) [Example 135, 6-[2-Fluoro-4-(2-hydroxyethoxy)-3-vinylphenyl]-5-methyl-4,5-dihydro-2H-pyridazin-3-one]",6.8
18,"Cc1cc(C2=NNC(=O)CC2C)c(F)c(C)c1OCC1(O)CC1 (stereo not drawn) [Example 171, 6-{2-Fluoro-4-[(1-hydroxycyclopropyl)methoxy]-3,5-dimethylphenyl}-5-methyl-4,5-dihydro-2H-pyridazin-3-one]",6.3
